Assays:
ENPP1 = biological target: T1, ENPP1 (Homo sapiens, UniProt P22413); assay: ENPP1 hydrolase activity detection assay (Ap3A, ADP-Glo); assay type: biochemical; details: ENPP1 4 ng/µl, 4 µM Ap3A
T1 sequence (P22413 1-925): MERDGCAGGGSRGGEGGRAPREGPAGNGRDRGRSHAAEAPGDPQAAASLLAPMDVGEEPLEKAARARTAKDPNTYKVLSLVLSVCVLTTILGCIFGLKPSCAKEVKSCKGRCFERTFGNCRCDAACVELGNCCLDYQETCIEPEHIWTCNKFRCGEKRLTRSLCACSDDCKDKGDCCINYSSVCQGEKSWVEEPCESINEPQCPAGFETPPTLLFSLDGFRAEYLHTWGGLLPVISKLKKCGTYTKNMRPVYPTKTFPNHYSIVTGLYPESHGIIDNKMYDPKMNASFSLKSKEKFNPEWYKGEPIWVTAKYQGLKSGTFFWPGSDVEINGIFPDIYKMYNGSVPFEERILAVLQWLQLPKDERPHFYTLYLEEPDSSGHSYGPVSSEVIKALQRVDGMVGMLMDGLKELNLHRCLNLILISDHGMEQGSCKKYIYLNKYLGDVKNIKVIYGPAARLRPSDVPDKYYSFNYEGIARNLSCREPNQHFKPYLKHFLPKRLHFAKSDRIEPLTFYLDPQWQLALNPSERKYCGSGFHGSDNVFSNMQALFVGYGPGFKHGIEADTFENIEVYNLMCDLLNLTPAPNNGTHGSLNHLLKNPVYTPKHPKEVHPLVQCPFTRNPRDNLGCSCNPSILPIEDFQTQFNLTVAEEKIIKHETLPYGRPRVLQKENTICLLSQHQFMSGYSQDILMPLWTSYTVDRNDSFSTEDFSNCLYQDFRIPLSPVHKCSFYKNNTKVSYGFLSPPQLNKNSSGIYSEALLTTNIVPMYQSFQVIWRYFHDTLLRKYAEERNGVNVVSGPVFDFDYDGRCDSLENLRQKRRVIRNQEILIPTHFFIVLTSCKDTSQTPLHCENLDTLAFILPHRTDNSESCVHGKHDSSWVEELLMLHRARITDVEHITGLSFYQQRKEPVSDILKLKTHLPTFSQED
Description: ENPP1 protein (4ng/µl) was mixed with series diluted compounds as indicated in assay buffer (50mM Tris-HCl, 2mM CaCl2, 2mM MgCl2, pH9.0) in a final DMSO concentration of 1% in a total volume of 20μL. The mixtures were incubated for 30min at 25°C, then 4µM Ap3A was added. After incubation at 25°C for 10min, ENPP1 should be inactivated at 85°C for 5min.
Then the production of ADP in the reaction system was detected by ADP-Glo reagent (V6930, Promega) according to the manufacturer’s protocol in 384-well. Luminescence was read by spark (TECAN), an integration time of 1 second per well. And the data were analyzed by

HCT116 cells = assay: CCK-8 assay for cell inhibitory rate; assay type: cell-based, human; details: WT HCT116 cells, concentration as high as 100 µM
Description: The CCK-8 (Cell-Counting Kit-8) assay was used to detect the cells’inhibitory rate following the manufacturer’s protocol (APExBIO). Cells were seeded into 96-well plates at the density of 4 × 10^3(cells/well) overnight at 37 °C. After that, the culture medium was removed and the cells were treated with different concentrations of TSA (0, 1, 2, 5, 10 µM) or STS (0, 10, 25, 50, 100 µM) for 24 h, 48 h, 72 h respectively. Then 10 μL CCK-8 reagent was added into each well and incubated for another 2 h, OD450 was measured by a microplate reader (spark, TECAN).

`Cc1c(S(=O)(=O)O)oc2c1C(=O)C(=O)c1c-2ccc2c1CCCC2(C)C` [STS, Sodium tanshinone IIA sulfonate] was tested, and the IC50 (ENPP1) was 57.9 ± 15.1 µM and the “cytotoxicity (CCK8)” value (HCT116 cells) was “no cytotoxicity”.

— article PMC8190080, “Tanshinones induce tumor cell apoptosis via directly targeting FHIT” (Scientific Reports, 2021)
